From patent US10689390B2, “Tricyclic fused derivatives of 1-(cyclo)alkyl pyridin-2-one useful for the treatment of cancer” (JUBILANT BIOSYS LIMITED, priority 2015, dated 2020)

Legend:
BRD4-BD1 = BRD4-BD1 (Homo sapiens (Human), UniProt O60885); experiment: BRD4 AlphaLISA (Perkin Elmer); type: binding; conditions: 5 nM BRD4-BD1, 12 nM biotinylated substrate, read-out: BRD4_BD1 IC50_μM
Description: BRD4 AlphaLISA (Perkin Elmer)
Compounds were diluted by step-down dilution method (final concentration of DMSO was 1%) and added to the wells of a 384 well opti plate at desired concentrations. 5 nM BDR4-BD1 enzyme (produced in-house) and 12 nM of biotinylated substrate were added to the wells, covered and incubated at room temperature (RT) for 1 h. At the end of 1 h 250 ng of GSH acceptor beads were added to the well and incubated for 1 h at RT; then 500 ng of streptavidin donor beads were added and incubated again for 1 h at RT. Plates were read in a Pherastar reader at 680 nm excitation and 570 nm emission. As detailed above, compounds were tested for both BRD4 enzyme inhibitory activities and IC50 were determined.

AML cell line MV4-11 = experiment: Anticancer activity: Alamar Blue 3-day proliferation assay; type: cell-based; conditions: Homo sapiens, MV4-11 cells, 72 h incubation, read-out: MV4-11 EC50_μM
Description: Anticancer Activity: Alamar Blue Assay
The impact of the compounds on cancer cell proliferation was determined using the AML cell line MV4-11 (ATCC) in a 3-day proliferation assay. MV4-11 cells were maintained in RPMI supplemented with 10% FBS at 37° C., 5% CO2. For compound testing, MV4-11 cells were plated in a 96-well black bottom plate at a density of 15,000 cells/well in 100 μL culture media and incubated at 37° C. overnight. Compound dilution series were prepared in DMSO via a 3-fold serial dilution from […]. The DMSO dilution series were then diluted with media, with the final compound concentrations added to the wells ranging from […]. […] The fluorescent readings from the Alamar Blue assay were normalized to the DMSO treated cells and analyzed using the GraphPad Prism software with sigmoidal curve fitting to obtain EC50.

Row | SMILES | IC50 (BRD4-BD1) [nM] | EC50 (AML cell line MV4-11) [nM]
1 | CCOC(=O)CC1OC(c2ccc(Cl)cc2)c2cc(OC)ccc2-c2cn(C)c(=O)cc21 (racemic) [Compound 1, ±Ethyl 2-(-7-(4-chlorophenyl)-9-methoxy-2-methyl-3-oxo-2,3,5,7-tetrahydrobenzo[5,6]oxepino[4,3-c]pyridin-5-yl)acetate] | 24 | –
2 | CCOC(=O)CC1OC(C2CCCCC2)c2cc(OC)ccc2-c2cn(C)c(=O)cc21 (racemic) [Compound 2, ±Ethyl-2-(7-cyclohexyl-9-methoxy-2-methyl-3-oxo-2,3,5,7-tetrahydrobenzo[5,6]oxepino[4,3-c]pyridin-5-yl)acetate] | 10 | 1
3 | CCNC(=O)CC1OC(c2ccc(C)cn2)c2cc(OC)ccc2-c2cn(C)c(=O)cc21 (racemic) [Compound 11, ±2-(9-methoxy-2-methyl-7-(5-methylpyridin-2-yl)-3-oxo-2,3,5,7-tetrahydrobenzo[5,6]oxepino[4,3-c]pyridin-5-yl)-N-ethylacetamide] | 61 | 175
4 | CCOC(=O)CC1N=C(c2ccc(Cl)cc2)c2cc(OC)ccc2-c2cn(C)c(=O)cc21 (racemic) [Compound 14, ±-Ethyl-2-(7-(4-chlorophenyl)-9-methoxy-2-methyl-3-oxo-3,5-dihydro-2H-benzo[c]pyrido[3,4-e]azepin-5-yl)acetate] | – | 2
5 | CCOC(=O)CC1N=C(C(F)(F)F)c2cc(OC)ccc2-c2cn(C)c(=O)cc21 (racemic) [Compound 18, ±Ethyl-2-(9-methoxy-2-methyl-3-oxo-7-(trifluoromethyl)-3,5-dihydro-2H-benzo[c]pyrido[3,4-e]azepin-5-yl)acetate] | 122 | –
6 | CCOC(=O)CC1N=C(C)c2cc(OC)ccc2-c2cn(C)c(=O)cc21 (racemic) [Compound 19, ±Ethyl-2-(9-methoxy-2,7-dimethyl-3-oxo-3,5-dihydro-2H-benzo[c]pyrido[3,4-e]azepin-5-yl)acetate] | 176 | –
7 | CCOC(=O)CC1N=C(c2c(F)cccc2F)c2cc(OC)ccc2-c2cn(C)c(=O)cc21 (racemic) [Compound 23, ±Ethyl-2-(7-(2,6-difluorophenyl)-9-methoxy-2-methyl-3-oxo-3,5-dihydro-2H-benzo[c]pyrido[3,4-e]azepin-5-yl)acetate] | 1 | 5
8 | CCNC(=O)CC1N=C(c2ccc(Cl)cc2)c2cc(OC)ccc2-c2cn(C)c(=O)cc21 (racemic) [Compound 25, ±2-(7-(4-chlorophenyl)-9-methoxy-2-methyl-3-oxo-3,5dihydro-2H-benzo[c]pyrido[3,4-e]azepin-5-yl)-N-ethylacetamide] | – | 3
9 | CCNC(=O)CC1N=C(C2CCCCC2)c2cc(OC)ccc2-c2cn(C)c(=O)cc21 (racemic) [Compound 26, ±2-(7-cyclohexyl-9-methoxy-2-methyl-3-oxo-3,5-dihydro-2H-benzo[c]pyrido[3,4-e]azepin-5-yl)-N-ethylacetamide] | 2 | 8
10 | CCNC(=O)CC1N=C(c2ccccn2)c2cc(OC)ccc2-c2cn(C)c(=O)cc21 (racemic) [Compound 27, ±2-(9-methoxy-2-methyl-3-oxo-7-(pyridin-2-yl)-3,5-dihydro-2H-benzo[c]pyrido[3,4-e]azepin-5-yl)-N-ethylacetamide] | 4.4 | 112
11 | COc1ccc2c(c1)C(c1ccc(Cl)cc1)=NC(CC(N)=O)c1cc(=O)n(C)cc1-2 (racemic) [Compound 28, ±2-(7-(4-chlorophenyl)-9-methoxy-2-methyl-3-oxo-3,5-dihydro-2H-benzo[c]pyrido[3,4-e]azepin-5-yl)acetamide] | 36 | 326
12 | CCNC(=O)CC1N=C(CC2CC2)c2cc(OC)ccc2-c2cn(C)c(=O)cc21 (racemic) [Compound 30, ±2-(7-(cyclopropylmethyl)-9-methoxy-2-methyl-3-oxo-3,5-dihydro-2H-benzo[c]pyrido[3,4-e]azepin-5-yl)-N-ethylacetamide] | 10 | 118
13 | CCNC(=O)CC1N=C(C(F)(F)F)c2cc(OC)ccc2-c2cn(C)c(=O)cc21 (racemic) [Compound 32, ±2-(9-methoxy-2-methyl-3-oxo-7-(trifluoromethyl)-3,5-dihydro-2H-benzo[c]pyrido[3,4-e]azepin-5-yl)-N-ethylacetamide] | 49 | 108
14 | CCNC(=O)CC1N=C(c2ccc(Cl)cc2)c2cc(C(F)(F)F)ccc2-c2cn(C)c(=O)cc21 (racemic) [Compound 35, ±2-(7-(4-chlorophenyl)-2-methyl-3-oxo-9-(trifluoromethyl)-3,5-dihydro-2H-benzo[c]pyrido[3,4-e]azepin-5-yl)-N-ethylacetamide] | 77 | 40
15 | CCNC(=O)CC1N=C(c2ccc(Cl)cc2)c2cc(F)ccc2-c2cn(C)c(=O)cc21 (racemic) [Compound 37, ±2-(7-(4-chlorophenyl)-9-fluoro-2-methyl-3-oxo-3,5-dihydro-2H-benzo[c]pyrido[3,4-e]azepin-5-yl)-N-ethylacetamide] | 4 | 28
16 | CCNC(=O)CC1N=C(c2c(F)cccc2F)c2cc(OC)ccc2-c2cn(C)c(=O)cc21 (racemic) [Compound 38, ±2-(7-(2,6-difluorophenyl)-9-methoxy-2-methyl-3-oxo-3,5-dihydro-2H-benzo[c]pyrido[3,4-e]azepin-5-yl)-N-ethylacetamide] | < 0.5 | 13
17 | CCNC(=O)CC1N=C(c2ccc(Cl)cc2C)c2cc(OC)ccc2-c2cn(C)c(=O)cc21 (racemic) [Compound 39, ±2-(7-(4-chloro,2-methylphenyl)-9-methoxy-2-methyl-3-oxo-3,5-dihydro-2H-benzo[c]pyrido[3,4-e]azepin-5-yl)-N-ethylacetamide] | 4 | 8
18 | CCNC(=O)C[C@H]1O[C@H](c2ccc(Cl)cc2)c2cc(OC)ccc2-c2cn(C)c(=O)cc21 [Compound 8F, 2-((5R,7R)-7-(4-chlorophenyl)-9-methoxy-2-methyl-3-oxo-2,3,5,7-tetrahydrobenzo[5,6]oxepino[4,3-c]pyridin-5-yl)-N-ethylacetamide] | 12 | 24
